Test results from article PMC11094307, “Marine-derived EGFR inhibitors: novel compounds targeting breast cancer growth and drug resistance” (Frontiers in Pharmacology, 2024).

Experiments:
A431 cells = test: MTT assay, A431; format: cell-based, human; settings: A431 (high EGFR-expressing), 10 μM
Procedure: (§1) The cell lines MCF-7 and A431 were cultured in Dulbecco’s Modified Eagle’s Medium (DMEM, Gibco, USA), while HL-60, H1299, and A549 cells were maintained in RPMI-1640 medium (Gibco, USA). Both mediums were enriched with 10% fetal bovine serum and 1% penicillin/streptomycin. […] All cell cultures were incubated at 37°C in an atmosphere containing 5% CO2.
(§2) Cells in the exponential growth phase were seeded into 96-well plates and allowed to adhere overnight. Subsequently, they were treated in triplicate with various concentrations of the compounds (0, 1.56, 3.13, 6.25, 12.5, 25, 50, 100 µM), […]. After 24 h, 20 µL of Methyl-thiazolyldiphenyl-tetrazolium bromide (MTT, 5 mg/mL, Thermo Fisher Scientific) was added to each well and incubated for a minimum of 4 h. Following the incubation, the medium containing the compounds and MTT was removed from each well, and 200 µL of dimethyl sulfoxide (DMSO) was added. The plates were then shaken for 10 min at 37°C to dissolve the formazan crystals. The absorbance was measured using a microplate reader (BioTek Synergy 4) at a wavelength of 490 nm.

HL-60 cells = test: MTT assay, HL-60; format: cell-based, human; settings: HL-60 (low EGFR-expressing), 10 μM
Procedure: as §1, §2

HER4 = HER4 (Homo sapiens, UniProt Q15303); test: Kinase profiling; format: biochemical
Procedure: (§3) The experiments were conducted in accordance with the manufacturer’s guidelines (Promega). The procedure began with a kinase reaction, where 5 μL of 1× kinase buffer was utilized, and the mixture was incubated at room temperature for 60 min. This step was followed by the addition of 5 μL of ADP-Glo™ reagent to terminate the kinase reaction and to deplete any remaining ATP, with a subsequent incubation period of 40 min at room temperature. Next, 10 μL of kinase detection reagent was added to convert ADP back into ATP, and luciferase along with luciferin was introduced to facilitate ATP detection. This mixture was then incubated at room temperature for an additional 30 min. Detection was carried out using a BioTek Synergy4 instrument, and data analysis, including curve fitting and presentation, was performed using GraphPad Prism version 5.0. […]; [Song et al., 2017]; [Abou-Zied et al., 2019]).

FGFR2 = FGFR2 (Homo sapiens, UniProt P21802); test: Kinase profiling; format: biochemical; settings: one of the other seven tyrosine kinases
Procedure: as §3

[1] = target: EGFR intracellular kinase domain (Homo sapiens, UniProt P00533); test: SPR binding (Biacore 8K); design: the intracellular tyrosine kinase (TK) domain of EGFR, tagged with GST; purchased Sinobiological, China; settings: without ATP
Description: The extracellular ligand-binding domain of EGFR, tagged with His, and the intracellular tyrosine kinase (TK) domain of EGFR, tagged with GST, were acquired from Sinobiological, China. Kinase assay systems for both wild-type EGFR and its mutants—T790M, L858R, and the dual L858R/T790M—were procured from Promega Corporation, USA. Cell lines including MCF-7, A549, A431, H1299, HL-60, and MCF-10A were obtained from the China Infrastructure Cell Line Resources.
The binding affinities of compounds towards EGFR extracellular ligand binding domain and EGFR intracellular kinase domain were assayed using the SPR-based Biacore 8K instrument (Cytiva). Considering the purchased EGFR was fused with GST tag, GST alone was also immobilized on the chip to do the binding measurement. All the proteins were respectively immobilized on a CM5 sensor chip by using standard amine-coupling at 25°C with running buffer HEPES-P (20 mM HEPES buffer, […], 0.05% surfactant P20, pH 7.4). A reference channel was only activated and blocked to eliminate compound unspecific binding to the surface of the chip. The immobilization level of EGFR extracellular ligand binding domain, EGFR intracellular kinase domain and GST were all about 10,000 RU. […] Extra wash with 50% DMSO was added to remove the last remaining sample in the pipeline.

MCF-7 cells [2] = test: MTT assay, MCF-7 growth inhibition; format: cell-based, human
Procedure: Both mediums were enriched with 10% fetal bovine serum and 1% penicillin/streptomycin.
Cells in the exponential growth phase were seeded into 96-well plates and allowed to adhere overnight. […] After 24 h, 20 µL of Methyl-thiazolyldiphenyl-tetrazolium bromide (MTT, 5 mg/mL, Thermo Fisher Scientific) was added to each well and incubated for a minimum of 4 h. Following the incubation, the medium containing the compounds and MTT was removed from each well, and 200 µL of dimethyl sulfoxide (DMSO) was added.
All experiments were repeated at least three times, and the data are presented as mean ± standard deviation (SD). The statistical analyses were performed using Origin. EC50 or IC50 values were obtained by fitting the data to a four-parameter Hill model of the graph of log dose against percentage cell viability or inhibition from at least three sets of experiments. Difference between two groups were analyzed by Student’s t test (two-sided) and significance was set at p < 0.05. The specific details about statistical methods are introduced in respective figure legends.

MCF-7 cells [3] = test: Cell cycle analysis by flow cytometry (PI); format: cell-based, human; settings: 20 μM, 24 h
Procedure: After 24 h of treatment with various concentrations of compounds, MCF-7 cells were harvested and washed twice with phosphate-buffered saline (PBS). For cell cycle analysis, the cells were initially fixed with 70% ethanol at 4°C overnight and subsequently washed with PBS. The fixed cells were then resuspended in 1× PBS containing 0.5% Triton X-100, 50 μg/mL propidium iodide (PI), and 50 μg/mL DNase-free RNase A, and incubated at 37°C for 30 min in darkness. Following incubation, cell cycle distribution was assessed using a BD FACSCanto™ flow cytometer.

EGFR intracellular kinase domain, sequence (P00533 712-979 limits assumed): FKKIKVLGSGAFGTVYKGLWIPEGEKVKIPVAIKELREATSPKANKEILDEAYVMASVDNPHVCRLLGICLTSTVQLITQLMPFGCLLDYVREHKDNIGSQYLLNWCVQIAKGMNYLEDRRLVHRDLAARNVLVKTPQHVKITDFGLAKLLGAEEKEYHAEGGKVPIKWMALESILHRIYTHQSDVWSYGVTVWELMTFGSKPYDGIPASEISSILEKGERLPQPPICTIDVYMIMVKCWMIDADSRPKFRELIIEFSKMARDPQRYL
FGFR2, sequence (P21802 22-821): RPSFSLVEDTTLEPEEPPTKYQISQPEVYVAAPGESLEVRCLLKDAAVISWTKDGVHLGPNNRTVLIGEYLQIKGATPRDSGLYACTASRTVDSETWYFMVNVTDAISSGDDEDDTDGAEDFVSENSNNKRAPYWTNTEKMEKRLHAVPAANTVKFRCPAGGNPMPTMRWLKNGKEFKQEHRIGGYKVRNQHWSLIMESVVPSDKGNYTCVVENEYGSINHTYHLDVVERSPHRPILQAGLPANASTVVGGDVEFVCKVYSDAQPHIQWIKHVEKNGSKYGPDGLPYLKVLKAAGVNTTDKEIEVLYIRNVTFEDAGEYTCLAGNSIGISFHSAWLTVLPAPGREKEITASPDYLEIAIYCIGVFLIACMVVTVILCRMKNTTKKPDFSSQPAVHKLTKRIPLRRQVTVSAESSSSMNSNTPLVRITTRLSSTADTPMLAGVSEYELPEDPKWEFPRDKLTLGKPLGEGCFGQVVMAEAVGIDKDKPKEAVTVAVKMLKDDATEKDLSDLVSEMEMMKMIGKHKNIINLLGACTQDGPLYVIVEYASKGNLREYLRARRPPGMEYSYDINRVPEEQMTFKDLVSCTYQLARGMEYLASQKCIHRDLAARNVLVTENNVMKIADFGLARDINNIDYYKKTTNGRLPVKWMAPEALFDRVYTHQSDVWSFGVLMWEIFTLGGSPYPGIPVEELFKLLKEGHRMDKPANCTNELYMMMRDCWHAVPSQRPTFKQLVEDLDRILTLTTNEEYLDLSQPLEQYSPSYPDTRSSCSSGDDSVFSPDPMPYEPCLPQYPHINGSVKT
HER4, sequence (Q15303 26-1308): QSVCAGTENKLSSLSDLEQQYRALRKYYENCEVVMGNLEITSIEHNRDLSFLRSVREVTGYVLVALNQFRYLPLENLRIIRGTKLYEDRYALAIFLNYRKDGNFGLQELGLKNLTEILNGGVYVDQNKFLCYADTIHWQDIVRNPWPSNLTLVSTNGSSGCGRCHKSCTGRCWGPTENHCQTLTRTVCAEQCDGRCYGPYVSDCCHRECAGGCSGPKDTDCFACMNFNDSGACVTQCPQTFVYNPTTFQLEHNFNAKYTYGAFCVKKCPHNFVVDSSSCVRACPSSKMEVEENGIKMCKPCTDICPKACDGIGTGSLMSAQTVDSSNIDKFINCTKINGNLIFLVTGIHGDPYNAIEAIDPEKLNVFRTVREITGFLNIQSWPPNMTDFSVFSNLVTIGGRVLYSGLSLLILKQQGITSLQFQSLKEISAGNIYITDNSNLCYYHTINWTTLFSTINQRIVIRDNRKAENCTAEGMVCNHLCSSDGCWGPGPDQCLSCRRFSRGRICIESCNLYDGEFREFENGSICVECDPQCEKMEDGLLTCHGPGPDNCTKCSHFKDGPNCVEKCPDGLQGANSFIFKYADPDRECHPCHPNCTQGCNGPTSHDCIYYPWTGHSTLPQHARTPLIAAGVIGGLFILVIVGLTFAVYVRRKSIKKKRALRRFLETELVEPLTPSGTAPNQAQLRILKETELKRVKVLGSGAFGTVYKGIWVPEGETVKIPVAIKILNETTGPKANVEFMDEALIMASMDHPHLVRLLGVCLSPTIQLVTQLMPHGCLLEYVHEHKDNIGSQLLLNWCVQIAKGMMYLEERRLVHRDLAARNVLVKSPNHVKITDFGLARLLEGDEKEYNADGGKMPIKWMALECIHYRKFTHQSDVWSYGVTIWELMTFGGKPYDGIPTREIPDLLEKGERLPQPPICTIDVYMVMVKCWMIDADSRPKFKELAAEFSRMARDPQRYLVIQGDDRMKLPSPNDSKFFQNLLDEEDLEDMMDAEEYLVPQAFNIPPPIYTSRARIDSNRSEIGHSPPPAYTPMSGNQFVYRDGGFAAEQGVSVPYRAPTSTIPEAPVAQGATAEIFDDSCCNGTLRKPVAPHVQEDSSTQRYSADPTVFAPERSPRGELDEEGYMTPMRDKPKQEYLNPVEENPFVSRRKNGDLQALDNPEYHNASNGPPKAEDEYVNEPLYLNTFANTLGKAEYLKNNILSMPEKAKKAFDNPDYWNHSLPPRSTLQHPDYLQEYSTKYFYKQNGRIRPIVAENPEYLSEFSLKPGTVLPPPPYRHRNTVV

COC(=O)C/C(C)=C/C(=O)O[C@@H]1C[C@@H](C)[C@H]2[C@@H](C=C[C@H](CC(C)C)[C@]2(C)C(=O)/C=C\O)[C@@H]1O [Tandyukisin]
cell lethality percentage (A431 cells): 67.3% ± 2.7%
cell lethality percentage (HL-60 cells): 11.1% ± 1.2%
IC50 (HER4): 31.1 ± 0.1 nM
IC50 (FGFR2): > 100000 nM
Kd [1]: 5570 nM
kon ([1]; Figure 4A-B, read-out: ka, EGFR kinase domain): 3050 M⁻¹ s⁻¹
EC50 (MCF-7 cells [2]; Homo sapiens, MCF7, MTT, 24 h, read-out: EC50, MCF-7 cell viability): 3000 ± 1000 nM
cell lethality percentage (MCF-7 cells [2]; MCF-7, 10 μM): 75.7% ± 2.3%
percentage of cells in G0/G1 phase (MCF-7 cells [3]): 85.67%
